{"source": "patent US20240398822A1", "about": "“METHODS AND COMPOSITIONS FOR TREATING AND MANAGING ALZHEIMER'S DISEASE” (Pharmatrophix, Inc., priority 2021, published 2024)", "key": {"[1]": {"experiment": "Phase I (1b) systemic pharmacokinetics, 600 mg b.i.d. for 10 days", "assay_type": "in vivo, human", "conditions": "for Cmax: human, plasma, po, 600 mg, 600 mg b.i.d. oral, 8 subjects, read-out: Cmax, systemic, arithmetic mean", "protocol": "A phase 1b studied was conducted in 10 elderly normal subjects for the purpose of obtaining plasma and CSF coordinated drug levels and to further assess safety at a dose of 600 mg bid over a 10-day period. The study was double-blinded and placebo controlled with 8 subjects receiving drug."}, "tau": {"tested_on": "tau", "experiment": "Phase IIa CSF total tau", "assay_type": "in vivo, human", "source_text": "(§1) CSF samples were obtained at screening Visit and final Visit via lumbar puncture to determine levels of tau, p-tau, Aβ40, Aβ42 and AChE activity as an initial set of CSF biomarkers. Aliquots of CSF were made available for emerging CSF biomarker methods such as measurement of additional biomarkers including neurofilaments light chain, neurogranin, SNAP-25, synaptotagmin, YKL-40, TREM2, tau oligomers and for measurement of drug level in selected patients based on the time period between last dose of drug and CSF sampling (FIG. 25 and FIG. 58).\n(§2) Baseline CSF samples are obtained prior to administration via lumbar puncture. These samples are used to determine levels of tau, p-tau, Aβ40, Aβ42, AChE, neurofilament light chain, SNAP-25, synaptotagmin-1, neurogranin, sTREM, and YKL-40. Aliquots of CSF are also made available for emerging CSF biomarker methods such as measurement of tau oligomers and for measurement of drug level in selected patients based on time period between last dose of the salt of Formula (II) and CSF sampling. […] Many of these biomarkers can also be measured in blood or plasma. The change in values over the time period from pre-treatment to post-treatment are of particular importance. […] Absolute levels at single time points of neurofilament light chain, SNAP-25, synaptotagmin-1, neurogranin, sTREM, and YKL-40 in CSF or blood or plasma are of less value given differences in assay techniques and wide variation in absolute levels within normal subjects and within and across AD subjects. In contrast, absolute levels of Aβ42 and 40 at baseline are useful biomarkers indicating the presence of amyloid pathology as low levels of Aβ42 and 40 at a given time point are consistent with amyloid pathology."}, "SYT1": {"tested_on": "SYT1", "experiment": "Phase IIa CSF pre-synaptic biomarker SYT1", "assay_type": "in vivo, human", "source_text": "as §1\n(§3) Baseline CSF samples are obtained prior to administration via lumbar puncture. These samples are used to determine levels of tau, p-tau, Aβ40, Aβ42, AChE, neurofilament light chain, SNAP-25, synaptotagmin-1, neurogranin, sTREM, and YKL-40. Aliquots of CSF are also made available for emerging CSF biomarker methods such as measurement of tau oligomers and for measurement of drug level in selected patients based on time period between last dose of the salt of Formula (II) and CSF sampling. […] Many of these biomarkers can also be measured in blood or plasma. The change in values over the time period from pre-treatment to post-treatment are of particular importance. […]"}, "neurogranin": {"tested_on": "neurogranin", "experiment": "Phase IIa CSF post-synaptic biomarker neurogranin (NG-36)", "assay_type": "in vivo, human", "source_text": "as §1, §2"}, "YKL-40": {"tested_on": "YKL-40", "experiment": "Phase IIa CSF glial biomarker YKL-40", "assay_type": "in vivo, human", "source_text": "as §1, §2"}, "CSF biomarkers": {"tested_on": "CSF biomarkers", "experiment": "Phase IIa CSF biomarkers, whole panel", "assay_type": "in vivo, human", "source_text": "as §1, §3"}, "[2]": {"tested_on": "patients with mild to moderate Alzheimer's disease", "experiment": "Phase IIa brain glucose metabolism (18F-FDG-PET)", "assay_type": "in vivo, human", "conditions": "for FDG-PET voxel (MCS) analysis, dose comparison: 400 mg versus 200 mg versus placebo", "procedure": "The specific ^18F FDG-PET scan for early detection of AD is conducted at the first and final visits. Quantitative and qualitative estimates of the cerebral glucose rate may be done by using FDG-PET as evident metabolic reduction is already present in patients at early stages of Alzheimer's disease. ^18F FDG-PET scanning is an imaging biomarker for synaptic function. Analyses include anatomical, statistical or voxel-based regions of interest.\nFDG-PET using statistical ROI measures derived from ADNI as described in the Chen et al. paper.\nAreas showing less decline are highlighted in yellow. It is notable that these areas are relevant to areas that degeneration in AD. […] This method makes possible analysis of FDG-PET signal in a common three-dimensional sampling space with the MRI analysis for each subject thereby enhancing accuracy of FDG-PET analysis and allowing the combination of the two modalities for further analyses and the assessment of the spatial relationship between structural and functional degeneration over time. […] For this analysis, the drug treatment group contains subjects treated with either 200 or 400 mg doses.\nFIGS. 56A-56C show FDG PET using group x time interaction patterns. In FIGS. 56A-56C, contrast estimate plots show the magnitude and direction of the interaction effects observed in the flexible factorial GLM.\nTherefore, if the actual observed ratio of t-values is close to equivalent in the input map at a given p and k threshold, the MCS ratio and p-value will tend to support the null hypothesis of no drug effect."}, "[3]": {"tested_on": "subjects in SAD and MAD studies", "experiment": "Phase 1 SAD/MAD safety", "assay_type": "in vivo", "source_text": "The phase 1 study was placebo controlled and double blinded and included 52 subjects in SAD studies and 20 subjects in MAD studies."}, "[4]": {"conditions": "annual percent change (APC), 6-month trial period"}}, "note": "Like-named read-outs stand apart in the source and are kept apart here.", "data": [{"smiles": "CC[C@H](C)[C@H](N)C(=O)NCCN1CCOCC1", "note": "[LM11A-31-BHS, Tris[(2S,3S)-2-amino-3-methyl-N-(2-morpholinoethyl)pentanamide] tetra(monohydrogensulfate), monosulfate]", "values": [{"measurement": "linearity of pharmacokinetics", "setting": "[1]; 600 mg BID during 10 days", "result": "linear"}, {"measurement": "Cmax", "setting": "[1]; day 1", "result": 1270, "unit": "ng/mL"}, {"measurement": "Cmax", "setting": "[1]; day 10", "result": 885, "unit": "ng/mL"}, {"measurement": "CSF total tau, drug dose analysis", "setting": "tau; 200 mg bid or 400 mg bid versus placebo", "result": "trends for lowering of total tau reduction, especially at the 400 mg dose"}, {"measurement": "drug effect in slowing or inhibiting the CSF tau increase, younger (<72 years) versus older (>=72 years)", "setting": "tau; [4]", "result": "greater than that found in the older group"}, {"measurement": "effect compared to placebo in decreasing the elevation of CSF tau", "setting": "tau; combined drug group, 6 month treatment period, p=0.06", "result": "near-significant effect"}, {"measurement": "increase of CSF tau levels in the drug group", "setting": "tau; combined drug group, 6 months, p=0.2 (placebo increase p=0.003)", "result": "no longer detected at a significant level"}, {"measurement": "CSF SYT1 levels, drug dose analysis", "setting": "SYT1; 200 and 400 mg doses", "result": "only nominal reductions below baseline at both doses"}, {"measurement": "CSF SYT1 change in the drug group", "setting": "SYT1; combined drug group, 6 months, p=0.06", "result": "trend for a decrease"}, {"measurement": "CSF neurogranin-36, drug dose analysis", "setting": "neurogranin; 200 mg dose versus placebo", "result": "significant lowering of NG-36"}, {"measurement": "CSF neurogranin-36, drug dose analysis", "setting": "neurogranin; 400 mg dose versus placebo", "result": "trend for reduction"}, {"measurement": "CSF neurogranin levels in the drug group", "setting": "neurogranin; combined drug group, 6 months, p=0.02", "result": "significant decrease"}, {"measurement": "CSF YKL40 significant increase seen with placebo, drug dose analysis", "setting": "YKL-40; 200 and 400 mg doses", "result": "no longer present at the 200 and 400 mg doses"}, {"measurement": "drug effect in slowing or inhibiting the pathological glial response (YKL-40), younger (<72 years) versus older (>=72 years)", "setting": "YKL-40; [4]", "result": "greater than that found in the older group"}, {"measurement": "CSF YKL-40 increase in the drug group", "setting": "YKL-40; combined drug group, difference between placebo and drug groups p=0.03", "result": "This increase was not detected in the drug group"}, {"measurement": "drug effect across all CSF biomarkers by age group", "setting": "CSF biomarkers; <72 years versus >=72 years", "result": "the drug effect was in general greater in the younger versus older group"}, {"measurement": "effect on biomarkers indicating neuronal degeneration, gliosis and neuro-inflammation", "setting": "CSF biomarkers; CSF, pre-treatment to post-treatment", "result": "ability to slow progression of increase of biomarkers indicating neuronal degeneration, gliosis and neuro-inflammation"}, {"measurement": "FDG-PET voxel (MCS) analysis, dose comparison", "setting": "[2]", "result": "400 mg effect is significant and significantly greater than the 200 mg effect"}, {"measurement": "FDG-PET voxel (MCS) analysis, dose comparison", "setting": "[2]; listed as LM11A-31", "result": "The effect at the 400 mg dose is higher than that at the 200 mg dose"}, {"measurement": "FDG-PET statistical ROI decline, drug versus placebo", "setting": "[2]; combined drug group, 6 month period", "result": "trend to less decline"}, {"measurement": "cerebral glucose rate compared to placebo or no treatment", "setting": "[2]; daily treatment", "result": "reduction in the extent of ongoing decrease in cerebral glucose rate"}, {"measurement": "FDG-PET loss of SUVR signal, dose analysis", "setting": "[2]; flexible factorial GLM, p<0.05 and cluster size >100", "result": "significant effect at both the 200 and 400 mg doses in slowing loss of SUVR signal"}, {"measurement": "FDG-PET sROI, dose comparison", "setting": "[2]; not statistically significant", "result": "greater trend is observed at 400 compared to the 200 mg dose"}, {"measurement": "deaths, SAEs, severe TEAEs, discontinuations because of an AE", "setting": "[3]; in vivo", "result": "no deaths, SAEs, severe TEAEs, and no subjects were discontinued because of an AE"}, {"measurement": "intensity of TEAEs", "setting": "[3]; in vivo", "result": "All TEAEs were mild"}, {"measurement": "laboratory results, physical examination, vital signs, ECG, C-SSRS", "setting": "[3]; in vivo", "result": "No clinically significant laboratory results, physical examination findings, vital signs, ECG findings, or positive scores"}, {"measurement": "subjects who experienced TEAEs", "setting": "[3]; multiple doses", "result": "7 of 16"}, {"measurement": "total TEAEs", "setting": "[3]; multiple doses", "result": 8}, {"measurement": "TEAEs considered unrelated to study drug", "setting": "[3]; multiple doses, remaining 2 possibly (flatulence) or remotely (nocturia) related", "result": 6}, {"measurement": "subjects who experienced a TEAE", "setting": "[3]; single dose", "result": "1 of 40"}, {"measurement": "total TEAEs", "setting": "[3]; single dose, postural dizziness, possibly related", "result": 1}, {"measurement": "safety and tolerability", "setting": "[3]; single doses of 100, 300, 600 and 900 mg free base, multiple doses of 300 BID and 600 mg free base QD", "result": "generally safe and well tolerated"}]}]}
